Assays:
Type in all cases: cell-based
MDA-MB-468 cells = assay: Cell cycle distribution by flow cytometry, MDA-MB-468; details: IC50, 24 h; for Apoptosis subG1 fraction: control 10%; for Cell cycle distribution G2/M: control 17%; for Cell cycle distribution S: control 31%; for Cell cycle distribution G1: control 52%
Excerpt: In the MCF-7 breast cancer cell line that has been the most widely studied experimental cell system, the typical growth inhibitory response to antiestrogens is decrease in the proportion of cells synthesising DNA (S phase) after antiestrogen treatment. This decrease in S phase coincides with an increase in the proportion of cells in G0/G1 phase. The activity of the androgen receptor (AR) is also regulated by alterations in cell signaling. There has been reported ligand independent activation of AR in prostate cancer cells by different growth factors. As the AR can be activated in the absence of hormone, it appears that the conditions may be more restricted than those observed for ER. Use of physiologic doses of ligand (dihydrotestosterone, DHT) is of importance as the LNCaP cells proliferate only at DHT concentration of 10^−9 M or lower. […] In contrast to proliferation, transactivation of AR specific target genes (e.g. PSA) continues to increase with DHT doses of 10^−10 M and higher. It might be accepted for estrogen or androgen receptors as stronger cytotoxic activities of brassinosteroids 9 or 6 on hormone-sensitive (MCF-7, LNCaP) compared to hormone-insensitive (MDA-MB-468, DU-145) cell lines were found. Therefore we explored the possibility of cell cycle perturbation by BRs in different cancer cell lines. Flow cytometry was used to evaluate the number of cells in the particular phases of the cell cycle, including subG1 peak detection. Control and treated cells were washed twice with cold PBS and centrifuged at 360×g for 10 min at 4° C., and fixed with chilled ethanol (70%; v/v) by low-speeded vortexing. For detection of DNA content analysis, propidium iodide staining was used. The cells were analyzed using a FACSCalibur flow cytometer (BD Biosciences, San Jose, Calif.).
Flow-cytometric detection of apoptosis. Several studies have declared that the induction of apoptosis may be cell cycle-dependent. Therefore, in our next series of experiments, we tested if brassinosteroids 9 or 6 cause apoptosis of the breast and prostate cancer cells via cell cycle blockage. From this reason we carried out DNA cell cycle analysis by flow cytometry based on detection of endonucleolytic DNA degradation that results in extraction of low molecular weight DNA from the cells. […] The subG1 peak containing apoptotic bodies was however not observed in MCF-7 cells.

[1] = system: malignant human melanoma cell line G361; assay: Calcein AM cytotoxicity assay, G 361; details: G 361; exposure 72 h (b71 says 96 h); mean ± SD; read-out: IC50 assessed by Calcein AM assay of surviving cells
[2] = system: LNCaP (androgen-sensitive) prostate cancer cell line; assay: MTT cytotoxicity test, LNCaP; details: 24 h, mean ± SD, read-out: IC50 determined by MTT cytotoxicity test
Experimental: 3-(4,5-Dimethylthiazol-2-yl)-2,5-diphenyltetrazolium bromide (MTT) was from Serva Electrophoresis (Heidelberg, Germany). Monoclonal mouse anti-bromodeoxyuridine (BrdU) intibody was obtained from DakoCytomation (Glostrup, Denmark). Calcein AM was obtained from PAA Laboratories GmbH (Pasching, Austria). […] All other cells were cultured in DMEM medium (Sigma, MO, USA). All used media were supplemented with 10% heat-inactivated fetal bovine serum, 2 mmol/L L-glutamine, 1% penicillin/streptomycin. The cell lines were maintained under standard cell culture conditions at 37° C. and 5% CO2 in a humid environment. Cells were subcultured twice or three times a week using the standard trypsinization procedure (Sigma, USA).
Cell viability in this case was assessed by 3-(4,5-dimethylthiozol-2-yl)-2,5-diphenyltetrazolium bromide (MTT) to determine IC50 concentrations of studied agents as described previously. […] The cells (70% to 80% confluent) were treated with brassinosteroids for 6, 12 and 24 h in cell culture medium. Cells that were used as controls were incubated with the maximum used amount of steroid diluent DMSO only. […] The absorbance was read using an ELISA reader Labsystem Multiscan RC at 570 nm. The viability of treated cells was related to the viability of control cells that represented 100% viability. […]

[3] = system: MCF-7, LNCaP and DU-145 cancer cell lines; assay: MTT cytotoxicity test, summary over cell lines; details: over cell lines except MDA-MB-468; 24 h; read-out: IC50 value around which the cell lines move (MTT)
Experimental: Stock solutions ([…]) were prepared by dissolving relevant quantity of substance in DMSO cultivation media (DMEM, RPMI 1640, F-12 medium), fetal bovine serum (FBS), L-glutamine, penicillin, and streptomycin were purchased from Sigma (MO, USA). 3-(4,5-Dimethylthiazol-2-yl)-2,5-diphenyltetrazolium bromide (MTT) was from Serva Electrophoresis (Heidelberg, Germany). Monoclonal mouse anti-bromodeoxyuridine (BrdU) intibody was obtained from DakoCytomation (Glostrup, Denmark). Calcein AM was obtained from PAA Laboratories GmbH (Pasching, Austria). […]
Cell viability in this case was assessed by 3-(4,5-dimethylthiozol-2-yl)-2,5-diphenyltetrazolium bromide (MTT) to determine IC50 concentrations of studied agents as described previously. […] The absorbance was read using an ELISA reader Labsystem Multiscan RC at 570 nm. […]

Row | SMILES | Apoptosis subG1 fraction (MDA-MB-468 cells) [%] | Cell cycle distribution G2/M (MDA-MB-468 cells) [%] | Cell cycle distribution S (MDA-MB-468 cells) [%] | Cell cycle distribution G1 (MDA-MB-468 cells) [%] | IC50 [1] [µM] | IC50 [2] [µM] | IC50 [3] [µM]
1 | CC(C)[C@@H](C)[C@@H](O)[C@H](O)[C@@H](C)[C@H]1CC[C@H]2[C@@H]3COC(=O)[C@H]4C[C@H](O)[C@H](O)C[C@]4(C)[C@H]3CC[C@]12C [Brassinosteroid 6, 24-Epibrassinolide] | 75 | 2 | 10 | 88 | > 50 | 60 ± 3.1 | ~61.7
2 | CC[C@@H](C(C)C)[C@@H](O)[C@H](O)[C@@H](C)[C@H]1CC[C@H]2[C@@H]3CC(=O)[C@H]4C[C@H](O)[C@H](O)C[C@]4(C)[C@H]3CC[C@]12C [Brassinosteroid 9, 28-Homocastasterone] | 35 | 9 | 17 | 74 | > 50 | 45 ± 2.3 | ~43.3

From US20100204460A1, “NATURAL BRASSINOSTEROIDS FOR USE FOR TREATING HYPERPROLIFERATION, TREATING PROLIFERATIVE DISEASES AND REDUCING ADVERSE EFFECTS OF STEROID DYSFUNCTION IN MAMMALS, PHARMACEUTICAL COMPOSITION AND ITS USE” (priority 2007, published 2010)
